Experimental data as given in article PMC10047683, “A Novel Family of Lysosomotropic Tetracyclic Compounds for Treating Leukemia” (Cancers, 2023).

Key:
MonoMac1 AML cells = assay: MonoMac1 AML xenograft, bone-marrow engraftment; format: in vivo, NSG mice; conditions: 30 mg/kg IP, 10 consecutive days; engraftment at Day 12
Method: We myeloablated 6–8-week-old NOD.Cg-Prkdc^scid Il2rg^tm1Wjl/SzJ (NSG, Jackson Laboratories) mice with busulfan (30 mg/kg IP) at Day 0. The next day, mice were transplanted with KG1 (10 million cells per mouse) or MonoMac1 (1 million per mouse) AML cells that had previously been transduced with luciferase-containing plasmid pLL-EF1a-rFLuc-T2A-GFP (Systems Bioscience #LL410PA-1) and left untreated for 3 (MonoMac1) or 5 days (KG1). For IP administration, compounds were dissolved in DMSO and diluted in saline prior to injection. For SC treatments, drugs were solubilized using Tween 80 (Escuder) and high-viscosity carboxymethylcellulose (CMC, Merck). For bioluminescence detection, mice were SC-administered 150 mg/kg Xenolight D-luciferin potassium salt luminescent substrate (Perkin Elmer), and the luminescence of isoflurane-anesthetized mice was acquired after 10 min in an IVIS Lumina II imaging device (Perkin Elmer) at adequate acquisition times (2 min for MonoMac-1, 30 s for KG1). The following quantitation and analysis were conducted with Aura Imaging software (Spectral Instruments Imaging). The last day of the experiment, mice were culled, and tibias and femurs were harvested. Engraftment was determined as the percentage of live human CD45-expressing cells in the bone marrow as assessed with flow cytometry. […]

A549 = assay: Pancancer cell line panel viability; format: cell-based; conditions: 10 µM, 48 h
Method: (§1) First, 2 × 10^5 (72 h assays in cell lines (Supplementary File S1)), 3 × 10^5 (48 h assays in cell lines) or 7.5 × 10^5 (primary AML, healthy donor buffy coats) cells per mL were cultured in 96-well plates, and all drugs were added at the indicated concentrations. In α-tocopherol experiments, cells were treated with growing concentrations of α-tocopherol and EDK drugs for 48 h. In the NAC and 3MA experiments, treatment was simultaneous with EDK compounds. In glucose deprivation experiments, cells were cultivated with a standard medium (glucose high, 2 g/L), a standard medium without glucose, or a standard medium with galactose (2 g/L) and without glucose. Cell viability was measured via 7-AAD (eBioscience) exclusion and Hoechst33342 (Sigma-Aldrich, St. Louis, MO, USA) positivity staining via flow cytometry, and the cell count was obtained through volume. In the experiments with the primary cells, analyses were performed inside the blast population as detected via blast gates (CD45^low SSC^int). For solid tumor cell lines, viability was analyzed using CellTiter-Glo® Luminescent Cell Viability Assay (Promega).
(§2) AML cell lines and cell cultures
(§3) Cell lines HL-60 (ACC-3), KG-1 (ACC-14), MonoMac-1 (ACC-252), Kasumi-1 […]
(§4) obtained from DSMZ. Cell lines THP-1 (TIB-202TM), MCF-7 (HTB-22™), MDA- […]
(§5) 3216™) and HS-5 (CRL-11882™) were obtained from ATCC. HBL-2 cell line was kindly supplied by Dr. Pérez-Galán (IDIBAPS, Barcelona, Spain). SKM-1 and U937 were kindly provided by Dr. Marcus Buschbeck (IJC, Badalona, Spain). All cell lines were cultured in the conditions indicated by the providers, and were tested for mycoplasma on a monthly basis.
(§6) All drugs were resuspended in H2O (Thermo Fischer Scientific), DMSO (Sigma-Aldrich) or ethanol (VWR) according to manufacturer’s specifications. - tocopherol, 3-methyladenine (3MA), arsenic trioxide (ATO) and N-acetyl-L-cysteine (NAC) were purchased from Sigma Aldrich. Chloroquine diphosphate was purchased from Merck. Etoposide and ionomycin were purchased from […]
(§7) (1 picture or pasted object on this page, not shown here)

ACHN = assay: Pancancer cell line panel viability; format: cell-based; conditions: 10 µM, 48 h
Method: as §1, §2, §3, §4, §5, §6, §7

CAKI = assay: Pancancer cell line panel viability; format: cell-based; conditions: 10 µM, 48 h
Method: as §1, §2, §3, §4, §5, §6, §7

DU-145 = assay: Pancancer cell line panel viability; format: cell-based; conditions: 10 µM, 48 h
Method: as §1, §2, §3, §4, §5, §6, §7

GRANTA = assay: Pancancer cell line panel viability; format: cell-based; conditions: 10 µM, 48 h
Method: as §1, §2, §3, §4, §5, §6, §7

HBL2 = assay: Pancancer cell line panel viability; format: cell-based; conditions: 10 µM, 48 h
Method: as §1, §2, §3, §4, §5, §6, §7

HCT-116 = assay: Pancancer cell line panel viability; format: cell-based; conditions: 10 µM, 48 h
Method: as §1, §2, §3, §4, §5, §6, §7

HCT-15 = assay: Pancancer cell line panel viability; format: cell-based; conditions: 10 µM, 48 h
Method: as §1, §2, §3, §4, §5, §6, §7

HOP62 = assay: Pancancer cell line panel viability; format: cell-based; conditions: 10 µM, 48 h
Method: as §1, §2, §3, §4, §5, §6, §7

JJN3 = assay: Pancancer cell line panel viability; format: cell-based; conditions: 10 µM, 48 h
Method: as §1, §2, §3, §4, §5, §6, §7

Jurkat = assay: Pancancer cell line panel viability; format: cell-based; conditions: 10 µM, 48 h
Method: as §1, §2, §3, §4, §5, §6, §7

K562 = assay: Pancancer cell line panel viability; format: cell-based; conditions: 10 µM, 48 h
Method: as §1, §2, §3, §4, §5, §6, §7

M14 = assay: Pancancer cell line panel viability; format: cell-based; conditions: 10 µM, 48 h
Method: as §1, §2, §3, §4, §5, §6, §7

MCF-7 = assay: Pancancer cell line panel viability; format: cell-based; conditions: 10 µM, 48 h
Method: as §1, §2, §3, §4, §5, §6, §7

MDA-MB-231 = assay: Pancancer cell line panel viability; format: cell-based; conditions: 10 µM, 48 h
Method: as §1, §2, §3, §4, §5, §6, §7

MDA-MB-435 = assay: Pancancer cell line panel viability; format: cell-based; conditions: 10 µM, 48 h
Method: as §1, §2, §3, §4, §5, §6, §7

MOLT4 = assay: Pancancer cell line panel viability; format: cell-based; conditions: 10 µM, 48 h
Method: as §1, §2, §3, §4, §5, §6, §7

NCI = assay: Pancancer cell line panel viability; format: cell-based; conditions: 10 µM, 48 h
Method: as §1, §2, §3, §4, §5, §6, §7

OVCAR = assay: Pancancer cell line panel viability; format: cell-based; conditions: 10 µM, 48 h
Method: as §1, §2, §3, §4, §5, §6, §7

PC-3 = assay: Pancancer cell line panel viability; format: cell-based; conditions: 10 µM, 48 h
Method: as §1, §2, §3, §4, §5, §6, §7

RAMOS = assay: Pancancer cell line panel viability; format: cell-based; conditions: 10 µM, 48 h
Method: as §1, §2, §3, §4, §5, §6, §7

SR = assay: Pancancer cell line panel viability; format: cell-based; conditions: 10 µM, 48 h
Method: as §1, §2, §3, §4, §5, §6, §7

U266 = assay: Pancancer cell line panel viability; format: cell-based; conditions: 10 µM, 48 h
Method: as §1, §2, §3, §4, §5, §6, §7

hERG = target: T1, hERG (Homo sapiens, UniProt Q12809); assay: In vitro hERG inhibition; format: biochemical
T1 construct: Eurofins Discovery Services (CEREP laboratories)
Method: All ADMET studies were performed in Eurofins Discovery Services (CEREP laboratories, Celle-Lévescault France). The pharmacokinetic studies were performed in Draconis Pharma SL (Barcelona, Spain) in CD-1 mice treated with 30 mg/kg EDK87 or EDK88 via SC or OG. Blood was collected by cardiac puncture at 0.5, 1, 2, 4, or 24 h.

T1 sequence (Q12809 whole entry): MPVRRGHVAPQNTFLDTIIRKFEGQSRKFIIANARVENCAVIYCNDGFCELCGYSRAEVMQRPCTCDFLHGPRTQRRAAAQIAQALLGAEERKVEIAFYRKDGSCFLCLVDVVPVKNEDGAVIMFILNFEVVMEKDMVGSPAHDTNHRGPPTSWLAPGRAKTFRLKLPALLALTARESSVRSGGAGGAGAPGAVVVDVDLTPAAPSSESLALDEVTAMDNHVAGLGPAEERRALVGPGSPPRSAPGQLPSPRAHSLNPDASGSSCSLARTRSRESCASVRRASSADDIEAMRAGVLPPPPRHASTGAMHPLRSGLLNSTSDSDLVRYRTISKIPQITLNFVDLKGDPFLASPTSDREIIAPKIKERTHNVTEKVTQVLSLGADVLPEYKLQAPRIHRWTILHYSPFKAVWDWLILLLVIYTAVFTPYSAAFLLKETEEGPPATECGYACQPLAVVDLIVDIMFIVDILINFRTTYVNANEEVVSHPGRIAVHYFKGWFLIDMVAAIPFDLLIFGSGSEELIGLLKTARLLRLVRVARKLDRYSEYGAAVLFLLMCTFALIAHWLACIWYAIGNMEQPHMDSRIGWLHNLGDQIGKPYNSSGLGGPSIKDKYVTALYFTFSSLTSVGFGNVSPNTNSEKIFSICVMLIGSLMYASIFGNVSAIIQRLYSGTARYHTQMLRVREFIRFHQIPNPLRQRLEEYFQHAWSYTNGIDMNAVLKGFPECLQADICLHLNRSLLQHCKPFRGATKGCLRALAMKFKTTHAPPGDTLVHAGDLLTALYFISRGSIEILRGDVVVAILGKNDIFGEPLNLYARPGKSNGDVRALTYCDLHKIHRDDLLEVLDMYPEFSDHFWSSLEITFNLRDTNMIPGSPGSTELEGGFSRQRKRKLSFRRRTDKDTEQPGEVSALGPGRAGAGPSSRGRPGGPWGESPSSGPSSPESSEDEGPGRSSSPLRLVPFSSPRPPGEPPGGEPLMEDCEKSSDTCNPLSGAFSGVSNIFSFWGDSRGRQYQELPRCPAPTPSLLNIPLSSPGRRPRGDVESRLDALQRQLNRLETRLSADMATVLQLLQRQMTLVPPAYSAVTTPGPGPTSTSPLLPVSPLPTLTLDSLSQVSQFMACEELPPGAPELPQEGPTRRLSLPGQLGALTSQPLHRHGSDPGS

CN1CCC(=C2c3ccccc3-c3c2sc2ccccc32)CC1 [EDK-87]
reduced the leukemic burden in the bone marrow (MonoMac1 AML cells): 58.44%
# Live cells refer to control (A549): 74%
# Live cells refer to control (ACHN): 70%
# Live cells refer to control (CAKI): 58%
# Live cells refer to control (DU-145): 57%
# Live cells refer to control (GRANTA): 35%
# Live cells refer to control (HBL2): 58%
# Live cells refer to control (HCT-116): 64%
# Live cells refer to control (HCT-15): 52%
# Live cells refer to control (HOP62): 44%
# Live cells refer to control (JJN3): 55%
# Live cells refer to control (Jurkat): 51%
# Live cells refer to control (K562): 87%
# Live cells refer to control (M14): 21%
# Live cells refer to control (MCF-7): 32%
# Live cells refer to control (MDA-MB-231): 47%
# Live cells refer to control (MDA-MB-435): 11%
# Live cells refer to control (MOLT4): 25%
# Live cells refer to control (NCI): 45%
# Live cells refer to control (OVCAR): 59%
# Live cells refer to control (PC-3): 65%
# Live cells refer to control (RAMOS): 74%
# Live cells refer to control (SR): 42%
# Live cells refer to control (U266): 70%
hERG inhibition (hERG): concerning results
